From patent US20230172878A1, “COMPOSITIONS AND METHODS FOR TREATING CYTOKINE STORMS” (priority 2020, published 2023)

Experiments:
mice [1] = conditions: cited from earlier work
rats = conditions: 10× higher doses than the human equivalent dose proposed for clinical trials; cited from earlier work
mice [2] = conditions: 10× higher doses than the human equivalent dose proposed for clinical trials; cited from earlier work
dogs = conditions: 10× higher doses than the human equivalent dose proposed for clinical trials; cited from earlier work
PBMCs [3] = experiment: Cytokine production by morpholinofructose-stimulated PBMCs from two donors; format: cell-based, human
Protocol: For FIGS. 2 through 7, cells from two donors were used, each in a separate independent study. Cytokines secreted in the media by the cells were measured at 2, 4, 6, 24 and 48 hours.
In the following examples cells were stimulated known cytokine stimulants, either lipopolysaccharide (“LPS”) or morpholino fructose. […] Varying levels of meglumine, or a salt thereof were then administered to the stimulated cells and the resulting cytokine levels measured.
Peripheral blood mononuclear cells (“PBMC”s) from two donors were used to measure cytokine levels in response to various inputs. For each donor, one group of PBMCs were untreated. One group was allowed to remain in cell culture. A different group was treated with 40 mM meglumine. Another group was treated with morpholinofructose at 40 mM concentration. Three remaining groups were treated with morpholinofructose at 40 mM concentration and meglumine at concentration of 20 mM, 40 mM, and 80 mM. The groups were allowed to incubate for up to 50 hours. Cytokines secreted in the media by the cells were measured at 2, 4, 6, 24 and 48 hours The percentage of cells positive for IL-6 was determined by flow cytometry.
The same protocol was used to measure the addition of meglumine to reduce the levels of TNF-α (FIGS. 3A and 3B), MIP-1α (FIGS. 4A and 4B), MCP-1(FIGS. 5A and 5B), and MCP-1 ((FIGS. 6A and 6B).

PBMCs [4] = experiment: LPS-stimulated cytokine-positive PBMCs, flow cytometry; format: cell-based, human; conditions: 4 hours
Protocol: Lipopolysaccharide (LPS) at […] concentration was used as a positive control for cytokine production in PBMCs. Meglumine was added at 40 mM and the cells allowed to incubate for 4 hours before sorting. […] (p<0.05 vs unstimulated and p<0.05 vs LPS). FIG. 8. The same protocol was sued to measure IL-1α production. […] FIG. 9.

THP-1 cells = experiment: LPS-induced cytokine secretion by THP-1 cells; format: cell-based, human; conditions: LPS 25 ng/ml, 24 hours
Protocol: THP-1 cells (a human monocytic cell line derived from an acute monocytic leukemia patient) were cultured to 80% confluence. The THP-1 cells were then treated with LPS at 25 ng/ml to induce cytokine secretion. Cells were treated with either various concentration of meglumine. Tissue culture media was harvested at 24 hours and the levels of cytokines were determined.

Q: With COc1cc2nc(N3CCN(C(=O)c4ccco4)CC3)nc(N)c2cc1OC [Prazosin, prazosin] as the compound, how does the “catecholamines and cytokine responses” value (mice [1]) read?
A: reduces

Q: What about the survival (mice [1]; following various hyper-inflammatory stimuli) of the same compound?
A: markedly increased survival

Q: With CNC[C@H](O)[C@@H](O)[C@H](O)[C@H](O)CO.Cl [meglumine HCl] as the compound, how does the safety (rats) read?
A: safe

Q: And the safety (mice [2])?
A: safe

Q: What about the safety (dogs) of the same compound?
A: safe

Q: What does the source list for CNC[C@H](O)[C@@H](O)[C@H](O)[C@H](O)CO [meglumine, (2R,3R,4R,5S)-6-(Methylamino)hexane-1,2,3,4,5-pentol]?
A: IL-6 levels in the PBMCs (PBMCs [3]; 40 mM morpholinofructose plus meglumine 20, 40, 80 mM, measured at 2, 4, 6, 24 and 48 hours): reduced the IL-6 levels; TNF-α production (PBMCs [3]; 40 mM morpholinofructose plus various concentrations of meglumine, FIGS. 3A, 3B): decreased; MIP 1α production (PBMCs [3]; 40 mM morpholinofructose plus various concentrations of meglumine, FIGS. 4A, 4B): decreased; MCP 1 production (PBMCs [3]; 40 mM morpholinofructose plus various concentrations of meglumine, FIGS. 5A, 5B): decreased; IL-10 production (PBMCs [3]; 40 mM morpholinofructose plus various concentrations of meglumine, FIGS. 6A, 6B): decreased; LPS-stimulated increase in the percentage of IL-6 positive PBMCs (PBMCs [4]; LPS 40 mM, meglumine 40 mM, p<0.05 vs unstimulated and vs LPS, FIG. 8): significantly reduced; percentage of PBMCs expressing IL-1α (PBMCs [4]; combination of LPS and meglumine 40 mM, FIG. 9): significantly increased; lowest concentration at which cytokine reduction was exhibited (THP-1 cells): 10 mm; secretion of IL-8 (THP-1 cells; meglumine at high concentrations, FIG. 11): ability to interfere with the secretion; secretion of MIP-1α (THP-1 cells; meglumine at high concentrations, FIG. 13): ability to interfere with the secretion; secretion of MIP-1β (THP-1 cells; meglumine at high concentrations, FIG. 14): ability to interfere with the secretion; secretion of VEGF (THP-1 cells; meglumine at high concentrations, FIG. 15): ability to interfere with the secretion

Q: With O=C(CN1CCOCC1)[C@@H](O)[C@H](O)[C@H](O)CO [morpholinofructose, reference compound] as the compound, how does the “IL-6 production versus control cells” value (PBMCs [3]; human PBMCs incubated with 40 mM morpholinofructose, FIG. 7) read?
A: significantly more IL-6 than control cells
